Legend:
VEGFR2 = target: T1, VEGFR2 (Homo sapiens, UniProt P35968); assay: VEGFR2 in vitro kinase inhibitory activity assay (TRF); type: biochemical; details: 0.5 μM ATP, 1 hour; read-out: VEGFR2 IC50(μM) or % I
T1 construct: purchased Upstate

Ba/F3-TEL-FGFR3 cells = target: T2, Ba/F3-TEL-FGFR3 cells (Homo sapiens, UniProt P22607); assay: Ba/F3-TEL-FGFR3 cell proliferation assay (Alamar Blue); type: cell-based; details: 72 hours; for GI50: read-out: BaF3-TEL-FGFR3 prolif
T2 construct: fused on or other part: P41212 (Transcription factor ETV6)
Method in brief: (§1)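 Ba/F3-TEL-FGFR3 cells (5×10^3/well, G418) and parental Ba/F3 (2.5×10^3/well, 2 ng/ml mouse IL-3) in RPMI/10% FBS, plated overnight, then compound for 72 h at 0.1% DMSO final. Alamar Blue 4-6 h, fluorescence 535/590 nm; IC50 where inhibition high.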

[1] = system: parental wild-type Ba/F3 cells; assay: Ba/F3 (WT) cell proliferation assay (Alamar Blue); type: cell-based; details: Mus musculus, BaF3, 72 hours, read-out: BaF3 WT prolif
Method in brief: as §1

FGFR3 = target: T3, FGFR3 (Homo sapiens, UniProt P22607); assay: FGFR3 in vitro kinase inhibitory activity assay (TRF); type: biochemical; details: 8 μM ATP, 3 hours; read-out: FGFR3 IC50(μM) or % I
T3 construct: purchased Upstate
T3 sequence (P22607 23-806): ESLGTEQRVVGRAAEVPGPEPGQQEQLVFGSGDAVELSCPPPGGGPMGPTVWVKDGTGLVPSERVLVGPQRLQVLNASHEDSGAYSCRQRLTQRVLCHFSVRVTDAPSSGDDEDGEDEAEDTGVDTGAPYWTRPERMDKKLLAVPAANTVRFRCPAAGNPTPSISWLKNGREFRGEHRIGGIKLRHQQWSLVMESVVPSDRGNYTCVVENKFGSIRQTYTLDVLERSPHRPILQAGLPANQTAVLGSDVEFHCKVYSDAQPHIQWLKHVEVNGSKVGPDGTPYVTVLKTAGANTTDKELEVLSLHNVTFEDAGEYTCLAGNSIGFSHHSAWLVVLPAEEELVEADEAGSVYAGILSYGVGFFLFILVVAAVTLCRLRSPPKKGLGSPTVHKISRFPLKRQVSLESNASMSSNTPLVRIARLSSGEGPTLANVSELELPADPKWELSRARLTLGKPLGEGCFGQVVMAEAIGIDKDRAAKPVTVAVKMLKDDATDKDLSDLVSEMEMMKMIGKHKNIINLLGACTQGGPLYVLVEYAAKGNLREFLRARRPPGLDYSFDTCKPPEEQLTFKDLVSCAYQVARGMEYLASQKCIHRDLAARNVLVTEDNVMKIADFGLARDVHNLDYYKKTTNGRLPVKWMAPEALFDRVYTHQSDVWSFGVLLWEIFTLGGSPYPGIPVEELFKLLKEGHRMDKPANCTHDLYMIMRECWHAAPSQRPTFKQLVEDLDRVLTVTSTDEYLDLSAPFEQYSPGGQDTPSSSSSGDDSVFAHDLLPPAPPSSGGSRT

T1 sequence (P35968 20-1356): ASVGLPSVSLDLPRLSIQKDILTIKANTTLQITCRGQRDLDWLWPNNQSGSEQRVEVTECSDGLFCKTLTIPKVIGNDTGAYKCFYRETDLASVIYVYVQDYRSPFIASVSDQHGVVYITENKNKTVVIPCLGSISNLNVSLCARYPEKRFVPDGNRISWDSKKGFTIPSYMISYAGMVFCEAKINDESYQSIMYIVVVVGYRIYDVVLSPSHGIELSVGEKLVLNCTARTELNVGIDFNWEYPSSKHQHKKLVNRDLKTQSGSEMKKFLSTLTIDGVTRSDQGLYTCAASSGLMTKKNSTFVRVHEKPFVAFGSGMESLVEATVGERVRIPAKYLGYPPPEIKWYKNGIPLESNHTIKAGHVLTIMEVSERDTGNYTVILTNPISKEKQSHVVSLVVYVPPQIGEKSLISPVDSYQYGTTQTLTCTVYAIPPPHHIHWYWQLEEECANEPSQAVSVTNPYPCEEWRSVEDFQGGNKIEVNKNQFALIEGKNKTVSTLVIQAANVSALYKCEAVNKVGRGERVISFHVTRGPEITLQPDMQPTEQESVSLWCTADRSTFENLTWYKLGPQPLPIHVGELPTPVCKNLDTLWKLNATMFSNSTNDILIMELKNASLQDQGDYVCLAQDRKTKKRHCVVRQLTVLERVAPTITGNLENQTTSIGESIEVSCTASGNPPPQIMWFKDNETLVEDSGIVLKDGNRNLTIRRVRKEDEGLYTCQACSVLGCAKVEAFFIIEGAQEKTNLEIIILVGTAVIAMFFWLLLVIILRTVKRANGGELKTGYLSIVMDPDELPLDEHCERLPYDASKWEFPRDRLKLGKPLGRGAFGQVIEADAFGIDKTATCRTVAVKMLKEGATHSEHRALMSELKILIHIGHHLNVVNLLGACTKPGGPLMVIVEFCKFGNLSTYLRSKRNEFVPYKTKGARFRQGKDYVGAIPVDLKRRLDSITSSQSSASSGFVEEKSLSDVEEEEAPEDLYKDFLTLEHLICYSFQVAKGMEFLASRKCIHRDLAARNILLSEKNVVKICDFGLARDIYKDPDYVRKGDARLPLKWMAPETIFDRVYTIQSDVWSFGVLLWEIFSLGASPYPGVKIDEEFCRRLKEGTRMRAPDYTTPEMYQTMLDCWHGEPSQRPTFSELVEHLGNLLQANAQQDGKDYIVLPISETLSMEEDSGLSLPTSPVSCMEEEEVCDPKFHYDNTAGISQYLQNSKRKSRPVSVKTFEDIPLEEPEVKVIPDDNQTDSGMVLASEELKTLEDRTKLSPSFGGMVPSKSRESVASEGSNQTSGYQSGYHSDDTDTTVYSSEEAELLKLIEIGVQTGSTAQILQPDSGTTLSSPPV
T2 sequence (P22607 whole entry, change not shown, the tested form may be a part): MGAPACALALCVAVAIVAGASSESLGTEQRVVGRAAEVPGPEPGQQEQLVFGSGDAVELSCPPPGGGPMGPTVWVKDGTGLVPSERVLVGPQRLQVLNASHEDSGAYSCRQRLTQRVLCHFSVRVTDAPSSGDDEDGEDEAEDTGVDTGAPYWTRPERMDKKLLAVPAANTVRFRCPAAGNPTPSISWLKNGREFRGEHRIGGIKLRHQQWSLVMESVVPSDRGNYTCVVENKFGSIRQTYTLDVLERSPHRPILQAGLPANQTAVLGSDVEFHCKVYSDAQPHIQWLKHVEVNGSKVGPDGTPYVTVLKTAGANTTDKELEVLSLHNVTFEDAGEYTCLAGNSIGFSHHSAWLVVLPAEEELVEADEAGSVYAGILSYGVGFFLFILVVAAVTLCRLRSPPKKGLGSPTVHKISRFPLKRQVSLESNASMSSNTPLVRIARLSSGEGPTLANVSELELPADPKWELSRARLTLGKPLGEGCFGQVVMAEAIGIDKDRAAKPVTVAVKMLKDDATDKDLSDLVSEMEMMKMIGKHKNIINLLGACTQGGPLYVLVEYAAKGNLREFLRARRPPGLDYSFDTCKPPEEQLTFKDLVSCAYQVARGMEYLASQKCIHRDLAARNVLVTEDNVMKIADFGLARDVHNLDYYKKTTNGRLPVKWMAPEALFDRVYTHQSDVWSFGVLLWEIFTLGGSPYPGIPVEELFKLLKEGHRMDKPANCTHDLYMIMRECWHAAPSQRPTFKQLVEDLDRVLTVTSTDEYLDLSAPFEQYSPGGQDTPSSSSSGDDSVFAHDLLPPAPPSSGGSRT

Structure (SMILES)	IC50 (VEGFR2) [µM]	BaF3-TEL-FGFR3 prolif (μM) (Ba/F3-TEL-FGFR3 cells; % at 3.00 μM) [% at]	inhibition at 10 µM [1] [%]	IC50 (FGFR3) [µM]	BaF3-TEL-FGFR3 prolif (μM) (Ba/F3-TEL-FGFR3 cells; % at 1.00 μM) [% at]	inhibition at 1 µM ([1]; % at 1.00 μM) [%]	GI50 (Ba/F3-TEL-FGFR3 cells) [nM]	inhibition at 3 µM [1] [%]	melting point [°C]
O=C(NCC(F)(F)F)Nc1cccc(-c2cnc3cc(C=NOCCC4CCNCC4)ccn23)c1 [Compound 1-59, 1-(3-{7-[(2-Piperidin-4-yl-ethoxyimino)-methyl]-imidazo[1,2-a]pyridin-3-yl}-phenyl)-3-(2,2,2-trifluoro-ethyl)-urea]	0.33	42.0	11	0.024					
N#CCCN1CCN(CCCON=Cc2ccn3c(-c4cccc(NC(=O)NCC(F)(F)F)c4)cnc3c2)CC1 [Compound 1-60, 1-{3-[7-({3-[4-(2-Cyano-ethyl)-piperazin-1-yl]-propoxyimino}-methyl)-imidazo[1,2-a]pyridin-3-yl]-phenyl}-3-(2,2,2-trifluoro-ethyl)-urea]	0.56			0.022	85.0	0			
O=C(NCC(F)(F)F)Nc1cccc(-c2cnc3cc(C=NOCC(O)CNC4CC4)ccn23)c1 (stereo not shown) [Compound 1-61, 1-(3-{7-[(3-Cyclopropylamino-2-hydroxy-propoxyimino)-methyl]-imidazo[1,2-a]pyridin-3-yl}-phenyl)-3-(2,2,2-trifluoro-ethyl)-urea]	0.44			0.029			930	30	
C/C(=N\OCCO)c1ccn2c(-c3cccc(NC(=O)NCC(F)(F)F)c3)cnc2c1 [Compound 1-62, 1-[3-(7-{1-2-Hydroxy-ethoxyimino-ethyl}-imidazo[1,2-a]pyridin-3-yl)-phenyl]-3-(2,2,2-trifluoro-ethyl)-urea]	0.051		45	0.0035			110		
CN(C)S(=O)(=O)N1CCN(CCCO/N=C/c2ccn3c(-c4cccc(NC(=O)NCC(F)(F)F)c4)cnc3c2)CC1 [Compound 1-63, 4-{3-[1-(3-{3-[3-(2,2,2-Trifluoro-ethyl)-ureido]-phenyl}-imidazo[1,2-a]pyridin-7-yl)-meth-(E)-ylideneaminooxy]-propyl}-piperazine-1-sulfonic acid dimethylamide]	0.5			0.016			310	45	
CC(C)Oc1cc(NC(=O)NCC(F)(F)F)cc(-c2cnc3cc(/C(=N/O)C4CC4)ccn23)c1 [Compound 1-66, 1-[3-(7-{Cyclopropyl-[(E)-hydroxyimino]-methyl}-imidazo[1,2-a]pyridin-3-yl)-5-isopropoxy-phenyl]-3-(2,2,2-trifluoro-ethyl)-urea]	1.4								222 to 223

Reference: US8481531B2, “Bicyclic heterocyclyl derivatives as FGFR kinase inhibitors for therapeutic use” (Astex Therapeutics Ltd, priority 2009, dated 2013)
